Assay results taken from US20230310414A1.
Like-named read-outs stand apart in the source and are kept apart here.

Assays:
SARS-CoV-2 = experiment: cell viability (CPE) assay, VERO-E6 cells enriched for ACE-2 infected with SARS-CoV-2, CellTiter-Glo; assay type: cell-based; conditions: for IC50: VERO-E6 cells enriched for ACE-2 plus SARS-CoV-2; for EC50: CPE assay
[1] = toxicity assay, VERO-E6 cells enriched for ACE-2 in the absence of virus, CellTiter-Glo; conditions: African green monkey, VERO-E6 cells enriched for ACE-2 receptor, no virus
VERO-E6 cells = experiment: as above; conditions: compound alone
[2] = tested on: IRAK1, NF-κB, MAPKs, IRAK4 (MyD88); experiment: MyD88 downstream signalling in human macrophages; assay type: cell-based
[3] = Severe acute respiratory syndrome coronavirus 2, Vero C1008, positive controls, read-out: IC50 (μM), In Vitro Anti-SARS-CoV-2 Activity
[4] = human macrophages, through interaction with MyD88

Q: For `CCN(CC)CCCC(C)Nc1ccnc2cc(Cl)ccc12` (centres unmarked) [Chloroquine, chloroquine, reference compound], which IC50 (SARS-CoV-2; [3]) is on record?
A: The IC50 was 3.78 µM.

Q: What about the CC50 [1] of the same compound?
A: Its CC50 is > 30 µM.

Q: Which IC50 (SARS-CoV-2; [3]) does the source give for `CCN(CCO)CCCC(C)Nc1ccnc2cc(Cl)ccc12` (centres unmarked) [Hydroxychloroquine, hydroxychloroquine, reference compound] here?
A: The IC50 was 3.53 µM.

Q: What about the CC50 [1] of the same compound?
A: The CC50 was > 30 µM.

Q: Which results are given for `COc1ccc2cc1Oc1ccc(cc1)C[C@H]1c3cc(c(OC)cc3CCN1C)Oc1c(OC)c(OC)cc3c1[C@H](C2)N(C)CC3` [tetrandrine, (1S,14S)-9,20,21,25-tetramethoxy-15,30-dimethyl-7,23-dioxa-15,30-diazaheptacyclo[22.6.2.2^3,6.1^8,12.1^14,18.0^27,31.0^22,33]hexatriaconta-3(36),4,6(35),8,10,12(34),18,20,22(33),24,26,31-dodecaene]?
A: EC50 (SARS-CoV-2; Severe acute respiratory syndrome coronavirus 2, Vero C1008, compound alone): 1.25 µM; SI (selectivity index; CC50/EC50) (SARS-CoV-2; compound alone): SI: 5.02.; CC50 [1]: 6.28 µM

Q: For “(14S,27S)-22,33-dimethoxy-13,28-dimethyl-2,5,7,20-tetraoxa-13,28-diazaoctacyclo[25.6.2.2^16,19.1^3,10.1^21,25.0^4,8.0^31,35.0^14,39]nonatri-aconta-1(33),3(39),4(8),9,16(38),17,19(37),21,23,25(36),31,34-dodecaene [cepharanthine]”, which EC50 (SARS-CoV-2; compound alone) is on record?
A: Its EC50 is 0.51 µM.

Q: And the IC50 (SARS-CoV-2; compound alone, read-out: IC50)?
A: Its IC50 is 0.51 µM.

Q: And the CC50 (VERO-E6 cells; VERO-E6 cells enriched for ACE-2, absence of virus)?
A: Its CC50 is 7.22 µM.

Q: What about the CC50 (VERO-E6 cells) of the same compound?
A: The CC50 was 7.22 µM.

Q: With `CCC(CC)COC(=O)[C@H](C)N[P@](=O)(OC[C@H]1O[C@@](C#N)(c2ccc3c(N)ncnn23)[C@H](O)[C@@H]1O)Oc1ccccc1` [Remdesivir, remdesivir, reference compound] as the compound, how does the CC50 [1] read?
A: Its CC50 is > 30 µM.

Q: For `CCOC(=O)[C@H]1O[C@@H]1C(=O)N[C@@H](CC(C)C)C(=O)NCCC(C)C` [E64d (aloxistatin), aloxistatin, reference compound], which IC50 (SARS-CoV-2; [3]) is on record?
A: The IC50 was 7.48 µM.

Q: And the CC50 [1]?
A: The CC50 was > 30 µM.

Q: What does the source list for `O.O=C(OC[C@H]1O[C@@H](OC(=O)c2cc(O)c(O)c(O)c2)[C@H](OC(=O)c2cc(O)c(O)c(O)c2)[C@@H](OC(=O)c2cc(O)c(O)c(O)c2)[C@@H]1OC(=O)c1cc(O)c(O)c(O)c1)c1cc(O)c(O)c(O)c1`?
A: NF-κB translocation into the nucleus [2]: inhibited; activation of IRAK1, NF-κB, and MAPKs [2, 4]: potently reduced; expression of IRAK4 [2, 4]: increasing expression
